# Laboratory results from patent EP2271935B1, “METHOD AND KIT FOR THE EX VIVO EVALUATION OF THE RESPONSE OF A TUMOR TO CONDITIONS TO BE TESTED” (Universität Leipzig, priority 2008, dated 2009).
# Read-outs that look alike come from different tables or passages of the source.
# Test system: epithelial cell line KB (DSMZ ACC 136)
# Assay: MTT assay of proliferation under varied riboflavin content and light exposure
# Type: cell-based, human
# Description: To address this question, three media, a) the RPMI 1640 without riboflavin and phenol red that is used in the method according to the invention and was manufactured according to our specifications by Biochrom, as well as two different RPMI 1640 charges purchased from Invitrogen which were each containing 532 nmol/L riboflavin, b) a phenol red-free (Gibco 11835), and c) a conventional RPMI 1640 (Gibco 21875) with 13.284 µmol/L phenol red. All media were supplemented with 2 mmol/L L-alanyl-1-glutamine as stabilized glutamine source (Biochrom K0302 Lot 0755 S) and the same amount of 10% (v/v) of heat-inactivated fetal calf serum (FCS) that was purchased from Invitrogen (Lot 41Q7554K) with a yield of 198 nmol/L riboflavin. […] These medium concentrations define the riboflavin concentrations in controls (see below).
# In addition to the influences exerted by the different types of media alone, the riboflavin-dependent impact on the outcome of the docetaxel treatment was investigated. For this purpose 100 µl/well of docetaxel dilutions containing threefold the concentration indicated were added into the wells of microwell plates. The following seven docetaxel concentrations were tested: 19.38, 38.75, 77.5, 155, 310, 620, and 1,240 pmol/L.
# To examine photoactivation-dependent riboflavin-mediated effects disturbing the outcome of ex-vivo chemoresponse-evaluation by conventional cell culture medium, and in particular in the absence of flavin-protecting experimental conditions, varying amounts of riboflavin were added. A stock solution of 200 µM (-)-riboflavin (CAS 83-68-5, Sigma R9504, FW=376.37 g/mol, purity >99%, cell culture tested) in phosphate buffered saline was diluted to adjust in each case the highest final concentration in culture (this means: after completion of the assay by addition of the other two components to the final assay volume of 300 µL) to exactly 10 µmol/L. Serial log10-dilutions were made from this concentration in each corresponding medium. These gave final concentrations in cell culture of 10.000, 1.018, 0.12, and 0.03 µmol/L in the case of medium a) (the medium according to the method of the invention), and concentrations of 10.000, 1.449, 0.594, and 0.508 µmol/L using media b) and c).
# In general, each combination of riboflavin and docetaxel were tested in duplicate, and controls without additional riboflavin in quadruplicate for each experimental setting in the same 96-well plate. The experimental conditions were as follows: For each of the used media, two different plates were prepared simultaneously and either handled completely under flavin-protecting conditions (illumination only by sodium discharge lamps with an emission wavelength of 589 nm [i]), or in the same bench (Thermo MSC 12) with the installed light inside their working chamber switched on. The dilution of docetaxel and those of riboflavin in the particular medium were prepared for all four plates of each medium type prior to the other working steps under flavin-protecting conditions. Thus the administrations of these dilutions took about 20 min either under flavin-protecting conditions or illuminated conditions. After completed preparation of the plates that thereafter contained 200 µL of both diluted compounds, the plates were incubated 2 h in the incubator to allow for adjustment of the appropriate pH.
# In between the stock culture of KB was harvested by trypsination of a 3-days stock culture (exponential growth phase). Stock cultures of KB cells always were grown without any antibiotic or antimycotic in phenol red- and riboflavin-free RPMI 1640 supplemented with 10% (v/v) FCS and were adapted to this medium for more than five passages. They were always handled at room temperature or warmer and were never exposed to light other than the light of a sodium discharge lamp with an emission wavelength of 589 nm for at least five passages. […]
smiles,measurement,setting,value
CC(=O)O[C@@]12CO[C@@H]1C[C@H](O)[C@@]1(C)C(=O)[C@H](O)C3=C(C)[C@@H](OC(=O)[C@H](O)[C@@H](NC(=O)OC(C)(C)C)c4ccccc4)C[C@@](O)([C@@H](OC(=O)c4ccccc4)[C@H]21)C3(C)C [docetaxel],IC50,"Homo sapiens, Epithelial cell, 0.5 h, Plate No. 11; Riboflavin 499 nmol/L; medium c), bench lighting <30 min, read-out: IC50 for docetaxel normalized to medium control of medium with same riboflavin content",0.1 nM
same,IC50,"Homo sapiens, Epithelial cell, 0.5 h, Plate No. 11; Riboflavin 508 nmol/L; medium c) conventional RPMI 1640 with phenol red, bench lighting <30 min, read-out: IC50 for docetaxel with reference to control with same riboflavin content",0.284 nM
same,IC50,"Homo sapiens, Epithelial cell, 0.5 h, Plate No. 11; Riboflavin 508 nmol/L; medium c), bench lighting <30 min, read-out: IC50 for docetaxel normalized to medium control of medium with same riboflavin content",0.126 nM
same,IC50,"Homo sapiens, Epithelial cell, 0.5 h, Plate No. 11; Riboflavin 594 nmol/L; medium c) conventional RPMI 1640 with phenol red, bench lighting <30 min, read-out: IC50 for docetaxel with reference to control with same riboflavin content",0.233 nM
same,IC50,"Homo sapiens, Epithelial cell, 0.5 h, Plate No. 11; Riboflavin 594 nmol/L; medium c), bench lighting <30 min, read-out: IC50 for docetaxel normalized to medium control of medium with same riboflavin content",0.103 nM
same,IC50,"Homo sapiens, Epithelial cell, 0.5 h, Plate No. 11; Riboflavin 1449 nmol/L; medium c) conventional RPMI 1640 with phenol red, bench lighting <30 min, read-out: IC50 for docetaxel with reference to control with same riboflavin content",0.275 nM
same,IC50,"Homo sapiens, Epithelial cell, 0.5 h, Plate No. 11; Riboflavin 1449 nmol/L; medium c), bench lighting <30 min, read-out: IC50 for docetaxel normalized to medium control of medium with same riboflavin content",0.122 nM
same,IC50,"Homo sapiens, Epithelial cell, 0.5 h, Plate No. 11; Riboflavin 10000 nmol/L; medium c) conventional RPMI 1640 with phenol red, bench lighting <30 min, read-out: IC50 for docetaxel with reference to control with same riboflavin content",0.247 nM
same,IC50,"Homo sapiens, Epithelial cell, 0.5 h, Plate No. 11; Riboflavin 10000 nmol/L; medium c), bench lighting <30 min, read-out: IC50 for docetaxel normalized to medium control of medium with same riboflavin content",0.11 nM
same,IC50,"Homo sapiens, Epithelial cell, 0.5 h, Plate No. 12; Riboflavin 499 nmol/L; medium c) conventional RPMI 1640 with phenol red, bench lighting <30 min, daylight 30 min, read-out: IC50 for docetaxel with reference to control with same riboflavin content",0.339 nM
same,IC50,"Homo sapiens, Epithelial cell, 0.5 h, Plate No. 12; Riboflavin 499 nmol/L; medium c), bench lighting <30 min, daylight 30 min, read-out: IC50 for docetaxel normalized to medium control of medium with same riboflavin content",0.1 nM
same,IC50,"Homo sapiens, Epithelial cell, 0.5 h, Plate No. 12; Riboflavin 508 nmol/L; medium c) conventional RPMI 1640 with phenol red, bench lighting <30 min, daylight 30 min, read-out: IC50 for docetaxel with reference to control with same riboflavin content",0.239 nM
same,IC50,"Homo sapiens, Epithelial cell, 0.5 h, Plate No. 12; Riboflavin 508 nmol/L; medium c), bench lighting <30 min, daylight 30 min, read-out: IC50 for docetaxel normalized to medium control of medium with same riboflavin content",0.0705 nM
same,IC50,"Homo sapiens, Epithelial cell, 0.5 h, Plate No. 12; Riboflavin 594 nmol/L; medium c) conventional RPMI 1640 with phenol red, bench lighting <30 min, daylight 30 min, read-out: IC50 for docetaxel with reference to control with same riboflavin content",0.2 nM
same,IC50,"Homo sapiens, Epithelial cell, 0.5 h, Plate No. 12; Riboflavin 594 nmol/L; medium c), bench lighting <30 min, daylight 30 min, read-out: IC50 for docetaxel normalized to medium control of medium with same riboflavin content",0.0591 nM
same,IC50,"Homo sapiens, Epithelial cell, 0.5 h, Plate No. 12; Riboflavin 1449 nmol/L; medium c) conventional RPMI 1640 with phenol red, bench lighting <30 min, daylight 30 min, read-out: IC50 for docetaxel with reference to control with same riboflavin content",0.153 nM
same,IC50,"Homo sapiens, Epithelial cell, 0.5 h, Plate No. 12; Riboflavin 1449 nmol/L; medium c), bench lighting <30 min, daylight 30 min, read-out: IC50 for docetaxel normalized to medium control of medium with same riboflavin content",0.045 nM
same,IC50,"Homo sapiens, Epithelial cell, Plate No. 01; Riboflavin 20 nmol/L; medium a) RPMI 1640 without riboflavin and phenol red, flavin-protecting conditions, read-out: IC50 for docetaxel with reference to control with same riboflavin content",0.209 nM
same,IC50,"Homo sapiens, Epithelial cell, Plate No. 01; Riboflavin 20 nmol/L; medium a), flavin-protecting conditions, read-out: IC50 for docetaxel normalized to medium control of medium with same riboflavin content",0.1 nM
same,IC50,"Homo sapiens, Epithelial cell, Plate No. 01; Riboflavin 30 nmol/L; medium a) RPMI 1640 without riboflavin and phenol red, flavin-protecting conditions, read-out: IC50 for docetaxel with reference to control with same riboflavin content",0.206 nM
same,IC50,"Homo sapiens, Epithelial cell, Plate No. 01; Riboflavin 30 nmol/L; medium a), flavin-protecting conditions, read-out: IC50 for docetaxel normalized to medium control of medium with same riboflavin content",0.0986 nM
same,IC50,"Homo sapiens, Epithelial cell, Plate No. 01; Riboflavin 120 nmol/L; medium a) RPMI 1640 without riboflavin and phenol red, flavin-protecting conditions, read-out: IC50 for docetaxel with reference to control with same riboflavin content",0.23 nM
same,IC50,"Homo sapiens, Epithelial cell, Plate No. 01; Riboflavin 120 nmol/L; medium a), flavin-protecting conditions, read-out: IC50 for docetaxel normalized to medium control of medium with same riboflavin content",0.11 nM
same,IC50,"Homo sapiens, Epithelial cell, Plate No. 01; Riboflavin 1018 nmol/L; medium a) RPMI 1640 without riboflavin and phenol red, flavin-protecting conditions, read-out: IC50 for docetaxel with reference to control with same riboflavin content",0.222 nM
same,IC50,"Homo sapiens, Epithelial cell, Plate No. 01; Riboflavin 1018 nmol/L; medium a), flavin-protecting conditions, read-out: IC50 for docetaxel normalized to medium control of medium with same riboflavin content",0.106 nM
same,IC50,"Homo sapiens, Epithelial cell, Plate No. 01; Riboflavin 10000 nmol/L; medium a) RPMI 1640 without riboflavin and phenol red, flavin-protecting conditions, read-out: IC50 for docetaxel with reference to control with same riboflavin content",0.257 nM
